Reference: article PMC5407577, “Functional and genetic evidence that nucleoside transport is highly conserved in Leishmania species: Implications for pyrimidine-based chemotherapy” (International Journal for Parasitology: Drugs and Drug …, 2017)
Read-outs that look alike come from different tables or passages of the source.

Assays:
T. b. brucei strain B48 = assay: microbe, parasite or virus in culture; format: cell-based; details: Trypanosoma brucei, read-out: inhibition of 0.5 μM [3H]-uridine uptake, 250 μM inhibitor
Description: (§1) Using the standard uptake technique as described for T. brucei and Leishmania species ([Wallace et al., 2002], [Al-Salabi and De Koning, 2005], [Gudin et al., 2006]), the dose- or time-dependent uptake of radiolabeled permeants was investigated.
Briefly, cells in the mid-to-late logarithmic stage of growth were harvested by centrifugation for 10 min at 1500×g. The cells were washed twice with transport assay buffer (AB: 33 mM HEPES, 98 mM NaCl, 4.6 mM KCl, 0.55 mM CaCl2, 0.07 mM MgSO4, 5.8 mM NaH2PO4, 0.3 mM MgCl2, 23 mM NaHCO3, 14 mM glucose, pH 7.3), resuspended at a density of 10^8 cells ml^−1 in AB, and left for 20–30 min at room temperature to recover from centrifugation stress. One hundred microliters of cell suspension was incubated at ambient temperature for a predetermined time with 100 μl radiolabeled test compound, in the presence or absence of unlabeled substrate or other competitive inhibitors. The incubation was terminated by the addition of ice-cold stop solution (AB containing saturating levels, usually 10 mM, of unlabeled permeant) and centrifugation through oil for 1 min at 13,000 × g. […] Radioactivity was determined by liquid scintillation counting in a Beckman LS6000 TA scintillation counter. Saturation data, inhibition data, and time courses were plotted to equations for linear or non-linear regression (hyperbolic or sigmoid curves), as appropriate. […]

LmexNT1 [1] = format: cell-based, Leishmania mexicana; details: inhibition of 1 μM [3H]-thymidine uptake, 20 s
Lmaj5FURes = format: cell-based, Leishmania major; details: 0.5 μM radiolabel
Description: as §1
(§2) Briefly, cells in the mid-to-late logarithmic stage of growth were harvested by centrifugation for 10 min at 1500×g. The cells were washed twice with transport assay buffer (AB: 33 mM HEPES, 98 mM NaCl, 4.6 mM KCl, 0.55 mM CaCl2, 0.07 mM MgSO4, 5.8 mM NaH2PO4, 0.3 mM MgCl2, 23 mM NaHCO3, 14 mM glucose, pH 7.3), resuspended at a density of 10^8 cells ml^−1 in AB, and left for 20–30 min at room temperature to recover from centrifugation stress. One hundred microliters of cell suspension was incubated at ambient temperature for a predetermined time with 100 μl radiolabeled test compound, in the presence or absence of unlabeled substrate or other competitive inhibitors. The incubation was terminated by the addition of ice-cold stop solution (AB containing saturating levels, usually 10 mM, of unlabeled permeant) and centrifugation through oil for 1 min at 13,000 × g. […] Radioactivity was determined by liquid scintillation counting in a Beckman LS6000 TA scintillation counter. Saturation data, inhibition data, and time courses were plotted to equations for linear or non-linear regression (hyperbolic or sigmoid curves), as appropriate. All experiments were performed in triplicate and on at least three independent occasions.

Lmaj5F2′dURes = format: cell-based, Leishmania major; details: 0.25 μM [3H]-uridine, 0.5 μM [3H]-uracil
Description: as §1, §2

LmajNT1 [2] = assay: [3H]-uridine uptake by L. major promastigotes, low-affinity component; format: cell-based, Leishmania major
In short: (§3)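 Mid-to-late log-phase parasites were washed and held at 10^8 cells ml^−1 in HEPES/bicarbonate buffer with glucose, pH 7.3, then incubated at ambient temperature with radiolabelled permeant, with or without unlabelled substrate or inhibitors. Uptake was stopped with ice-cold excess unlabelled permeant and oil centrifugation, then counted by scintillation; saturation, inhibition and time-course data fitted by regression, in triplicate.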

LmajU1 = system: LmajU1; design: method as in Papageorgiou et al., 2005; details: ref Papageorgiou et al., 2005; cited from earlier work
Lmex5F2′dURes = format: cell-based, Leishmania mexicana; details: 0.5 μM [3H]-uridine, 0.1 μM [3H]-adenosine, 0.25 μM [3H]-uracil
In short: as §3

LmexUU1 = format: cell-based, Leishmania mexicana
In short: as §3

Lmex5FURes = format: cell-based, Leishmania mexicana; details: 0.5 μM radiolabel
In short: as §3

LmexNT1 [3] = format: cell-based, Leishmania mexicana
In short: as §3

[4] = system: L. mexicana promastigotes; format: cell-based, Leishmania mexicana
In short: as §3

L. major promastigotes = assay: total [3H]-uridine uptake by L. major promastigotes; format: cell-based, Leishmania major
Description: as §1, §2

LmajNT1 [5] = assay: [3H]-thymidine uptake by L. major promastigotes; format: cell-based, Leishmania major; details: inhibition of 0.25 μM [3H]-thymidine uptake (total LmajNT1.1 + LmajNT1.2), 5 min
LmexNT1 [6] = assay: [3H]-adenosine uptake by L. mexicana promastigotes; format: cell-based, Leishmania mexicana; details: inhibition of 0.05 μM [3H]-adenosine uptake; read-out: Ki
LmajUUT1 = assay: [3H]-uridine uptake by L. major promastigotes, high-affinity uracil-sensitive component; format: cell-based, Leishmania major; details: for Km: double reciprocal plot, n = 3, read-out: Km (1)
In short: as §3

LdNT1.1 = system: LdNT1.1; design: method as in Vasudevan et al., 1998; Landfear, 2001; details: ref Vasudevan et al., 1998; Landfear, 2001; cited from earlier work
LdNT1.2 = system: LdNT1.2; design: method as in Vasudevan et al., 1998; Landfear, 2001; details: ref Vasudevan et al., 1998; Landfear, 2001; cited from earlier work
[7] = biological target: P1 adenosine/inosine transporter; design: method as in De Koning and Jarvis, 1999; details: ref De Koning and Jarvis, 1999; cited from earlier work
[8] = inhibition of 0.25 μM [3H]-uridine uptake
[9] = [3H]-uridine, high affinity component

For `O=c1cc[nH]c(=O)[nH]1` [uracil], the inhibition at 250 µM (T. b. brucei strain B48) was 75.7%, the Ki (LmexNT1 [1]) was greater than 2500 µM and the “uptake of radiolabel, lower than in WT control cells” value (“uptake of radiolabel, lower than” for short) (Lmaj5FURes) was 95.7%. The “uptake of radiolabel, lower than” value (Lmaj5F2′dURes) was 80%, the “uptake of radiolabel, lower than” value (Lmaj5F2′dURes; listed as [^3H]-uracil) was 81.4% and the Ki (LmajNT1 [2]; [8]) was greater than 1000 µM. The Km (LmajU1) was 0.32 µM, the “uptake of radiolabel, reduced compared to WT control cells” value (Lmex5F2′dURes) was “unaffected” and the “uptake of radiolabel, reduced compared to WT control cells” value (Lmex5F2′dURes; listed as [^3H]-uracil) was “not significantly different”. For the same compound, the rate of transport (LmexUU1; 0.25 μM [3H]-uracil, linear to at least 10 min) was 0.0020 ± 0.0002 pmol(10^7 cells)^−1s^−1, the rate of transport (LmexUU1; 0.5 μM [3H]-uracil, linear over 10 min (Fig. 4B legend)) was 0.0020 ± 0.0002 pmol(10^7 cells)^−1s^−1 and the rate of transport (LmexUU1; 1 μM [3H]-uracil, linear over 120 s) was 0.0030 ± 0.0002 pmol(10^7 cells)^−1s^−1. For the same compound, the “inhibition of 0.5 μM [3H]-uracil transport” value (LmexUU1; 1 mM unlabeled uracil) was 95%, the Vmax (LmexUU1; [3H]-uracil) was 0.088 ± 0.010 pmol(10^7 cells)^−1s^−1 and the Km (LmexUU1; [3H]-uracil, 4 min, n = 3) was 29.7 ± 4.4 µM. The “uptake of radiolabel, lower than” value (Lmex5FURes) was 90.2%, the Ki (LmexNT1 [3]; inhibition of 0.25 μM [3H]-uridine uptake in the presence of 1 mM uracil) was greater than 2500 µM and the “inhibition of 0.25 μM [3H]-uridine transport” value ([4]; maximal inhibition, uracil up to 2.5 mM (Fig. 3B)) was 48%. It also gave a Ki ([4]; read-out: Ki, uracil-sensitive uridine transporter, partial inhibition of 0.25 μM [3H]-uridine uptake, n = 5) of 25.7 ± 6.6 µM, an inhibition at 0.25 µM (L. major promastigotes; Leishmania major, 3 h, read-out: partial (maximal) inhibition of 0.25 μM [3H]-uridine transport) of 77.2 ± 2.7% and a Ki (LmajNT1 [5]) greater than 1000 µM. The Ki (LmexNT1 [6]) was greater than 2500 µM and the Ki (LmajUUT1; [8]) was 2.65 ± 0.6 µM.

In the case of `O=c1ccn([C@@H]2O[C@H](CO)[C@@H](O)[C@H]2O)c(=O)[nH]1` [uridine], the Ki (LmexNT1 [1]) is reported as 9.1 ± 0.6 µM, the “Vmax (2)” value (LmajNT1 [2]; [3H]-uridine, low affinity component) is reported as 0.15 ± 0.04 pmol(10^7 cells)^−1s^−1 and the Km (LmajNT1 [2]; [3H]-uridine, low affinity component, n = 3, read-out: Km (2)) is reported as 33.5 ± 7.3 µM. For the same compound, the Km (LdNT1.1) was 5 µM, the Ki (LmexUU1; inhibition of [3H]-uracil uptake, 4 min) was 2 ± 0.5 µM and the “maximal inhibition of [3H]-uracil transport” value (LmexUU1; n = 3) was “approximately 85%”. The Vmax (LmexNT1 [3]; [3H]-uridine, in the presence of 1 mM uracil) was 0.74 ± 0.13 pmol(10^7 cells)^−1s^−1, the Km (LmexNT1 [3]; [3H]-uridine, measured in the presence of 1 mM uracil) was 13.3 ± 2.4 µM and the Km ([4]; read-out: Km for the uridine flux, total flux, no uracil, n = 5) was 7.15 ± 0.9 µM. For the same compound, the Km (LdNT1.2) was 40 µM, the Km (L. major promastigotes; n = 3, read-out: apparent Km (single Michaelis-Menten saturation plot)) was 7.3 ± 1.3 µM and the Ki [7] was 830 µM. The Ki (LmexNT1 [6]) was 16.8 ± 1.3 µM, the “Vmax (1)” value (LmajUUT1; [9]) was 0.036 ± 0.004 pmol(10^7 cells)^−1s^−1 and the Km (LmajUUT1; [3H]-uridine, high affinity component, listed as [^3H]-uridine) was 3.12 ± 0.61 µM. For the same compound, the Km (LmajUUT1; [9]) was 3.1 ± 0.6 µM.
